{"source": "patent US20230146395A1", "about": "“Substituted Pyrimidines and Uses Thereof” (Verge Analytics, Inc., priority 2020, published 2023)", "key": {"PI3Kγ": {"target": "T1, PI3Kγ (Homo sapiens, UniProt P48736)", "T1 construct": "Full length N-terminal; His (N); host or cells: SF9 cells (baculovirus)", "test": "Inhibition of PI3K isoforms: PI3Kγ (microfluidic electrophoresis kinase assay, PIP2/PS substrate)", "format": "biochemical", "conditions": "p120γ, ATP 100 μM; read-out: PI3Kg IC50", "procedure": "The kinase substrate was prepared by mixing and sonicating fluorescently-labeled phosphatidylinositol 4,5-phosphate (PIP2) with phospho-L-serine (PS) at 1:20 ratio in 50 mM HEPES buffer pH7.5.\nThe kinase reactions were assembled in 384-well plates (Greiner) in a total volume of […] as follows. The kinase proteins were pre-diluted in an assay buffer comprising 50 mM HEPES, pH 7.5, 0.012% CHAPS, 1 mM DTT, 10 mM Na3VaO4, 10 mM 3-GP, 3 mM MgCl2, and 40 mM NaCl2, and dispensed into a 384-well plate (10 μL per well). Test compounds were serially pre-diluted in DMSO and added to the protein samples by acoustic dispensing (Labcyte Echo). The concentration of DMSO was equalized to 1% in all samples. All test compounds were tested at 12 concentrations. […] Terminated plates were analyzed on a microfluidic electrophoresis instrument (Caliper LabChip® 3000, Caliper Life Sciences/Perkin Elmer). The change in the relative fluorescence intensity of the PI(4,5)P substrate and PI(3,4,5)P product peaks was measured. The activity in each test sample was determined as the product to sum ratio (PSR): P/(S+P), where P is the peak height of the product, and S is the peak height of the substrate. Percent inhibition (Pinh) was determined using the following equation: […]"}, "[1]": {"system": "HEK 293T transfected with plasmids containing TDP-43 Q331K mutation", "test": "HEK/TDP Survival assay (Cell-Titer-Glo, 48 hrs, maximal effect of rescue)", "format": "cell-based", "conditions": "Homo sapiens, HEK 293T with TDP-43 Q331K, (n) in brackets", "procedure": "HEK/TDP Survival assay: Immortalized human embryonic kidney 293T (HEK 293T) were transfected with plasmids containing TDP-43 Q331K mutation, resulting in an increase in cell death that is biologically relevant to ALS patients. Cell death is measured as reductions in the amount of ATP, an indicator of metabolically active cells, that is quantified by a luminescence Cell-Titer-Glo® (CTG) reagent. Compounds are evaluated in this model for changes in CTG compared to a no treatment group. Increased signal indicates improved survival (rescue) and decreased signal indicates decreased survival.\nCell rescue was measured in a 96-well format with eight different concentrations of the test compound over 48 hours (hrs) with 6 replicates. The Promega Cell-Titer-Glo® Luminescent Cell Viability Assay was used to quantify ATP, an indicator of metabolically active cells (see protocol: https://www.promega.com/-/media/files/resources/protocols/technical-manuals/101/celltiterglo-2-0-assay-protocol.pdf?la=en). The luminescence signal was detected using the PerkinElmer EnVision or Molecular Devices SpectraMax.\nThe effect of a compound at a given dose on cell viability was determined using a three step procedure. First, Hedge's g for the Cell Titer-Glo luminescence values using six untreated wells on every plate as a control was calculated. […] Finally, values from all compound-dose pairs were corrected for multiple hypothesis testing using the Empirical Bayes framework of Stephens, M. (False discovery rates: a new deal, Biostatistics, 18 [2], 2017, 275-294) yielding credible intervals for the measured effect and associated s values.\nBriefly, this method computes a local false sign rate for each experiment. Analogous to the local false discovery rate of Efron, B. (Size, power and false discovery rates, Ann. Statist. 35 [4], 2007, 1351-1377) this value measures the confidence in the sign of each effect (rather than confidence in each effect being non-zero). The s values reported in the previous figures are the expected fraction of errors if estimating the sign of all effects with greater absolute local false sign rate, defined in analogy to the q value of Storey, JD (The positive false discovery rate: a Bayesian interpretation and the q-value, Ann. Statist. 31 [6] 2003, 2013-2035).\nDrugs that yielded signed log s values greater than 3 were considered hits. This threshold was determined by a separate calibration experiment in which Cell Titer-Glo® was measured in blank plates consisting of untreated cells to assess the noise inherent in the assay. Data are presented as the maximal effect of rescue obtained from the dose-response curve."}}, "note": "Counter-ions that a name gives are not always drawn.", "data": [{"smiles": "c1ccc(-c2cc(Nc3nc(N4CCOCC4)c4oc(-c5ccncc5)cc4n3)[nH]n2)cc1", "note": "[Compound 1, 4-morpholino-N-(3-phenyl-1H-pyrazol-5-yl)-6-(pyridin-4-yl)furo[3,2-d]pyrimidin-2-amine hydrochloride]", "values": [{"measurement": "IC50", "setting": "PI3Kγ", "value": "> 10", "unit": "µM"}, {"measurement": "EC50", "setting": "[1]", "value": 14, "unit": "nM"}]}]}
